Test results reported in patent publication US12509452B2, “Substituted-isoxazoline-containing aromatic compound, preparation method therefor, herbicidal composition and use thereof” (QINGDAO KINGAGROOT CHEMICAL COMPOUND CO., LTD., priority 2019, dated 2025).

Key:
Test in all cases: weeding effect in post-emergence stage
Assay type in all cases: in vivo
Alopecurus japonicus = system: Alopecurus japonicus
Procedure, shortened: (§1)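 Potted weeds were sown, covered with 0.5-2 cm soil and grown in a greenhouse, then sprayed at the 2-3 leaf stage (2 weeks after sowing) via spray tower; compounds in acetone with Tween 80 and 1.5 liter/ha methyl oleate concentrate; doses 500-7.5 g a.i./ha. Fresh-weight control scored on 0-5 levels after 3 weeks; triplicate means.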

Beckmannia syzigachne = system: Beckmannia syzigachne
Procedure, shortened: as §1

Conyza japonica = system: Conyza japonica
Procedure, shortened: as §1

Rorippa indica = system: Rorippa indica
Procedure, shortened: as §1

Row | Structure (SMILES) | weeding effect in post-emergence stage, Alopecurus japonicus (activity level) (Alopecurus japonicus; dose 125 g a.i./ha) | weeding effect in post-emergence stage, Beckmannia syzigachne (activity level) (Beckmannia syzigachne; dose 125 g a.i./ha) | weeding effect in post-emergence stage, Conyza japonica (activity level) (Conyza japonica; dose 125 g a.i./ha) | weeding effect in post-emergence stage, Rorippa indica (activity level) (Rorippa indica; dose 15 g a.i./ha) | weeding effect in post-emergence stage, Rorippa indica (activity level) (Rorippa indica; dose 125 g a.i./ha) | weeding effect in post-emergence stage, Alopecurus japonicus (activity level) (Alopecurus japonicus; dose 15 g a.i./ha) | weeding effect in post-emergence stage, Beckmannia syzigachne (activity level) (Beckmannia syzigachne; dose 15 g a.i./ha) | weeding effect in post-emergence stage, Conyza japonica (activity level) (Conyza japonica; dose 15 g a.i./ha) | weeding effect in post-emergence stage, Alopecurus japonicus (activity level) (Alopecurus japonicus; dose 7.5 g a.i./ha) | weeding effect in post-emergence stage, Beckmannia syzigachne (activity level) (Beckmannia syzigachne; dose 7.5 g a.i./ha) | weeding effect in post-emergence stage, Conyza japonica (activity level) (Conyza japonica; dose 7.5 g a.i./ha) | weeding effect in post-emergence stage, Rorippa indica (activity level) (Rorippa indica; dose 7.5 g a.i./ha)
1 | CCOC(=O)C1(COC(C)=O)CC(c2cc(-n3c(=O)cc(C(F)(F)F)n(C)c3=O)c(F)cc2Cl)=NO1 (racemic) [Compound 219] | 5 (Level 5: growth control rate is above 85%) | 5 (Level 5: growth control rate is above 85%) | 5 (Level 5: growth control rate is above 85%) | 4 (Level 4: growth control rate is greater than or equal to 60% and less than 85%) | 5 (Level 5: growth control rate is above 85%) | – | – | – | – | – | – | –
2 | CCOC(=O)C1(COC(=O)C(=O)O)CC(c2cc(-n3c(=O)cc(C(F)(F)F)n(C)c3=O)c(F)cc2Cl)=NO1 (racemic) [Compound 220] | 5 (Level 5: growth control rate is above 85%) | 5 (Level 5: growth control rate is above 85%) | 5 (Level 5: growth control rate is above 85%) | – | 5 (Level 5: growth control rate is above 85%) | – | – | – | – | – | – | –
3 | COC(=O)C1(OC)CC(c2cc(-n3c(=O)cc(C(F)(F)F)n(C)c3=O)c(F)cc2Cl)=NO1 (racemic) [Compound 226] | 5 (Level 5: growth control rate is above 85%) | 5 (Level 5: growth control rate is above 85%) | 5 (Level 5: growth control rate is above 85%) | – | 5 (Level 5: growth control rate is above 85%) | – | – | – | – | – | – | –
4 | CCOC(=O)C1(CC)CC(c2cc(-n3c(=S)cc(C(F)(F)F)n(C)c3=O)c(F)cc2Cl)=NO1 (racemic) [Compound 228] | 5 (Level 5: growth control rate is above 85%) | 5 (Level 5: growth control rate is above 85%) | 5 (Level 5: growth control rate is above 85%) | 5 (Level 5: growth control rate is above 85%) | 5 (Level 5: growth control rate is above 85%) | 5 (Level 5: growth control rate is above 85%) | 4 (Level 4: growth control rate is greater than or equal to 60% and less than 85%) | 5 (Level 5: growth control rate is above 85%) | – | – | – | –
5 | CCOC(=O)C1(CC)CC(c2cc(-n3c(=O)cc(C(F)(F)F)n(C)c3=S)c(F)cc2Cl)=NO1 (racemic) [Compound 229] | 5 (Level 5: growth control rate is above 85%) | 5 (Level 5: growth control rate is above 85%) | 5 (Level 5: growth control rate is above 85%) | – | 5 (Level 5: growth control rate is above 85%) | – | – | – | – | – | – | –
6 | CCOC(=O)C1(CC)CC(c2cc(-n3c(=S)cc(C(F)(F)F)n(C)c3=S)c(F)cc2Cl)=NO1 (racemic) [Compound 230] | 5 (Level 5: growth control rate is above 85%) | 5 (Level 5: growth control rate is above 85%) | 5 (Level 5: growth control rate is above 85%) | – | 5 (Level 5: growth control rate is above 85%) | – | – | – | – | – | – | –
7 | CCOC(=O)C1(C2CC2)CC(c2cc(-n3c(=S)cc(C(F)(F)F)n(C)c3=O)c(F)cc2Cl)=NO1 (racemic) [Compound 231] | 5 (Level 5: growth control rate is above 85%) | 5 (Level 5: growth control rate is above 85%) | 5 (Level 5: growth control rate is above 85%) | 5 (Level 5: growth control rate is above 85%) | 5 (Level 5: growth control rate is above 85%) | – | 4 (Level 4: growth control rate is greater than or equal to 60% and less than 85%) | 5 (Level 5: growth control rate is above 85%) | – | – | – | –
8 | CCOC(=O)[C@]1(CC)CC(c2cc(-n3c(=O)n(C)c(=S)n(C)c3=O)c(F)cc2Cl)=NO1 [3(S)] | 5 (Level 5: growth control rate is above 85%) | 5 (Level 5: growth control rate is above 85%) | 5 (Level 5: growth control rate is above 85%) | – | 5 (Level 5: growth control rate is above 85%) | – | – | – | 5 (Level 5: growth control rate is above 85%) | 4 (Level 4: growth control rate is greater than or equal to 60% and less than 85%) | 4 (Level 4: growth control rate is greater than or equal to 60% and less than 85%) | 5 (Level 5: growth control rate is above 85%)
9 | CCC[C@@]1(C(=O)OCC)CC(c2cc(-n3c(=O)n(C)c(=S)n(C)c3=O)c(F)cc2Cl)=NO1 [4(S)] | 5 (Level 5: growth control rate is above 85%) | 5 (Level 5: growth control rate is above 85%) | 5 (Level 5: growth control rate is above 85%) | 5 (Level 5: growth control rate is above 85%) | 5 (Level 5: growth control rate is above 85%) | 5 (Level 5: growth control rate is above 85%) | 5 (Level 5: growth control rate is above 85%) | 5 (Level 5: growth control rate is above 85%) | – | – | – | –
10 | CCOC(=O)[C@@]1(C2CC2)CC(c2cc(-n3c(=O)n(C)c(=S)n(C)c3=O)c(F)cc2Cl)=NO1 [17(S)] | 5 (Level 5: growth control rate is above 85%) | 5 (Level 5: growth control rate is above 85%) | 5 (Level 5: growth control rate is above 85%) | – | 5 (Level 5: growth control rate is above 85%) | – | – | – | – | – | – | –
